US8999957B2, “Heterocyclic compounds as ERK inhibitors” (Merck Sharp & Dohme Corp., priority 2010, dated 2015)

Each compound was assayed against fully phosphorylated, active Mouse ERK2 protein (Mus musculus (Mouse), UniProt P63085) (assay: Active ERK2 (aERK) IMAP assay, condition 1). Conditions: aERK assay condition 1, 30 μM ATP.
fully phosphorylated, active Mouse ERK2 protein, sequence (P63085 whole entry): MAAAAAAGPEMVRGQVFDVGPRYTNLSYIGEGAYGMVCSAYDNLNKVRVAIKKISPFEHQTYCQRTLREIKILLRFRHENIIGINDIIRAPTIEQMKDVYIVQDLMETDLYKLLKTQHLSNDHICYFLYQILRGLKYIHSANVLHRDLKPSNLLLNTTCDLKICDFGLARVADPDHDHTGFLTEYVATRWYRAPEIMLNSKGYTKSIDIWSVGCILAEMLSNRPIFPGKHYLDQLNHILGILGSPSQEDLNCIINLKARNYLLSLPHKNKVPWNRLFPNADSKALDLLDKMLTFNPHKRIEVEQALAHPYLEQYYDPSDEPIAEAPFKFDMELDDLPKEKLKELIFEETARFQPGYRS
Format: biochemical
Description: Active ERK2 (aERK) Assay: (Unless Indicated Otherwise, the Data Provided for aERK was obtained using Condition 1)
Activated ERK2 activity was also determined in the IMAP assay format using the procedure outlined above. […] Reactions proceeded for 30 minutes before termination by addition of 60 μl IMAP detection beads in binding buffer. Plates were read as above after 30 minute binding equilibration.
In the case of `CC(C)Oc1ccc(-c2n[nH]c3ccc(C(=O)N[C@@H]4CNC[C@H](c5ccccc5)C4)cc23)cc1`, the IC50 is reported as 45.1 nM.
For `COc1cccc(F)c1CN1CCCCC(NC(=O)c2ccc3[nH]nc(-c4ccncc4)c3c2)C1` (stereo not shown), the IC50 was 231 nM.
With `O=C(NC1CCCCN(Cc2c(F)cccc2F)C1)c1ccc2[nH]nc(-c3ccncc3)c2c1` (stereo not shown) the IC50 was 148 nM.
Work on `O=C(NC1CCCCN(Cc2ccccc2F)C1)c1ccc2[nH]nc(-c3ccncc3)c2c1` (stereo not shown) yielded an IC50 of 79.2 nM.
`O=C(NC1CCCCN(Cc2ccccn2)C1)c1ccc2[nH]nc(-c3ccncc3)c2c1` (stereo not shown) showed an IC50 of 369 nM.
`O=C(NC1CCCCN(CCc2ccccc2)C1)c1ccc2[nH]nc(-c3ccncc3)c2c1` (stereo not shown) gave an IC50 of 8.72 nM.
In the case of `O=C(N[C@@H]1CCCN(Cc2c(F)cccc2F)C1)c1ccc2[nH]nc(-c3ccnc(Cl)c3)c2c1`, the IC50 is reported as 62.3 nM.
For `O=C(NC1CCCCN(Cc2ccccc2)C1)c1ccc2[nH]nc(-c3ccncc3)c2c1` (stereo not shown), the IC50 was 249 nM.
`O=C(NC1CN(C(=O)OCc2ccccc2)CC(F)(F)C1)c1ccc2[nH]nc(-c3ccncc3)c2c1` (stereo not shown) gave an IC50 of 105 nM.
`COc1cccc(F)c1CN1CC(NC(=O)c2ccc3[nH]nc(-c4ccncc4)c3c2)CC(F)(F)C1` (stereo not shown) gave an IC50 of 17.4 nM.
`O=C(NC1CN(Cc2c(F)cccc2F)CC(F)(F)C1)c1ccc2[nH]nc(-c3ccncc3)c2c1` (stereo not shown) gave an IC50 of 241 nM.
Work on `O=C(N[C@@H]1CCCNC1)c1ccc2[nH]nc(-c3ccncc3)c2c1` yielded an IC50 of 835 nM.
For `O=C(NC1CCCCN(CCCc2ccccc2)C1)c1ccc2[nH]nc(-c3ccncc3)c2c1` (stereo not shown), the IC50 was 72.5 nM.
Compound `Cc1cc(-c2n[nH]c3ccc(C(=O)N[C@@H]4CCCN(CC(O)c5ccccc5F)C4)cc23)ccn1` (stereo partly shown) has an IC50 of 181 nM.
`COc1cccc(F)c1CN1C[C@H](NC(=O)c2ccc3[nH]nc(-c4ccc5nccn5c4)c3c2)C[C@@H](C(F)(F)F)C1` showed an IC50 of 181 nM.
`COc1cccc(F)c1CN1CCC(O[Si](C)(C)C(C)(C)C)C(NC(=O)c2ccc3[nH]nc(-c4ccc5nccn5c4)c3c2)C1` (stereo not shown) was tested, and the IC50 was 318 nM.
Compound `COc1cccc(F)c1CN1CCC(O)C(NC(=O)c2ccc3[nH]nc(-c4ccc5nccn5c4)c3c2)C1` (stereo not shown) has an IC50 of 42.1 nM.
`COc1cccc(F)c1CN1CCC(F)C(NC(=O)c2ccc3[nH]nc(-c4ccc5nccn5c4)c3c2)C1` (stereo not shown) showed an IC50 of 16.3 nM.
With `COC(=O)[C@@H]1CC[C@@H](NC(=O)c2ccc3[nH]nc(-c4ccncc4)c3c2)CN1` the IC50 was 144 nM.
For `O=C(NC1CCCCN(CCc2ccccc2F)C1)c1ccc2[nH]nc(-c3ccncc3)c2c1` (stereo not shown), the IC50 was 5 nM.
`COC(=O)[C@@H]1CC[C@@H](NC(=O)c2ccc3[nH]nc(-c4ccncc4)c3c2)CN1Cc1ccccc1` gave an IC50 of 40.7 nM.
In the case of `COc1cccc(F)c1CN1CCC[C@@H](NC(=O)c2ccc3[nH]nc(-c4ccn5ncnc5c4)c3c2)C1`, the IC50 is reported as 68.9 nM.
`COc1cccc(F)c1CN1CCC[C@@H](NC(=O)c2ccc3[nH]nc(-c4ccc5nc(C)nn5c4)c3c2)C1` gave an IC50 of 22.2 nM.
With `COc1cccc(F)c1CN1CCC[C@@H](NC(=O)c2ccc3[nH]nc(-c4ccc5nncn5c4)c3c2)C1` the IC50 was 6.46 nM.
In the case of `COc1cccc(F)c1CN1CC(NC(=O)c2ccc3[nH]nc(-c4ccnc(C)c4)c3c2)CCC1C` (stereo not shown), the IC50 is reported as 26.8 nM.
`COc1cccc(F)c1CN1CCCC(NC(=O)c2ccc3[nH]nc(-c4ccnc(C)c4)c3c2)C1C` (stereo not shown) showed an IC50 of 66.9 nM.
`Cc1cc(-c2n[nH]c3ccc(C(=O)N[C@@H]4CCCN(CC(F)(F)c5ccccc5F)C4)cc23)ccn1` showed an IC50 of 170 nM.
`Cc1cc(-c2n[nH]c3ccc(C(=O)N[C@@H]4CCCN(CC(F)(F)c5ccccc5)C4)cc23)ccn1` showed an IC50 of 76.5 nM.
`O=C(NC1CCCCN(CCc2cccc3ccccc23)C1)c1ccc2[nH]nc(-c3ccncc3)c2c1` (stereo not shown) showed an IC50 of 12.9 nM.
`O=C(NC1CCCCN(CCc2cccc(F)c2)C1)c1ccc2[nH]nc(-c3ccncc3)c2c1` (stereo not shown) showed an IC50 of 13.4 nM.
For `COc1cccc(F)c1CN1CCC[C@@H](NC(=O)c2ccc3[nH]nc(-c4ccc5ncsc5c4)c3c2)C1`, the IC50 was 28.2 nM.
`CCc1nnc2ccc(-c3n[nH]c4ccc(C(=O)N[C@@H]5CCCN(Cc6c(F)cccc6OC)C5)cc34)cn12` showed an IC50 of 70.9 nM.
`CN1CC(NC(=O)c2ccc3[nH]nc(-c4ccc5nccn5c4)c3c2)CCC1C1CC1` (stereo not shown) gave an IC50 of 395 nM.
With `COc1cccc(F)c1CN1CC(NC(=O)c2ccc3[nH]nc(-c4ccc5nccn5c4)c3c2)CCC1C1CC1` (stereo not shown) the IC50 was 49.3 nM.
`O=C(N[C@@H]1CCCN(Cc2ncon2)C1)c1ccc2[nH]nc(-c3ccncc3)c2c1` showed an IC50 of 50.1 nM.
Compound `O=C(NC1CN(Cc2ccccc2F)CC(F)(F)C1)c1ccc2[nH]nc(-c3ccncc3)c2c1` (stereo not shown) has an IC50 of 127 nM.
`O=C(NC1CN(Cc2ccccc2)CC(F)(F)C1)c1ccc2[nH]nc(-c3ccncc3)c2c1` (stereo not shown) gave an IC50 of 144 nM.
In the case of `CN1C[C@H](NC(=O)c2ccc3[nH]nc(-c4ccncc4)c3c2)CC[C@H]1C(=O)NCc1ccccc1`, the IC50 is reported as 350 nM.
With `COc1ccccc1CN1CC(NC(=O)c2ccc3[nH]nc(-c4ccncc4)c3c2)CC(F)(F)C1` (stereo not shown) the IC50 was 167 nM.
Work on `Cc1cccc(C)c1CN1CC(NC(=O)c2ccc3[nH]nc(-c4ccncc4)c3c2)CC(F)(F)C1` (stereo not shown) yielded an IC50 of 457 nM.
For `COC(=O)[C@@H]1CC[C@@H](NC(=O)c2ccc3[nH]nc(-c4ccncc4)c3c2)CN1Cc1c(F)cccc1OC`, the IC50 was 40.5 nM.
Work on `COc1cccc(F)c1CN1C[C@H](C)C[C@H](NC(=O)c2ccc3[nH]nc(-c4ccc5ncsc5c4)c3c2)C1` yielded an IC50 of 15.2 nM.
`Cn1cc2cc(-c3n[nH]c4ccc(C(=O)N[C@@H]5C[C@H](C(F)(F)F)CN(Cc6c(F)cccc6F)C5)cc34)ccc2n1` showed an IC50 of 39.8 nM.
Compound `Cn1cc2cc(-c3n[nH]c4ccc(C(=O)N[C@H]5C[C@@H](C(F)(F)F)CN(Cc6c(F)cccc6F)C5)cc34)ccc2n1` has an IC50 of 375 nM.
`COc1cccc(F)c1CN1C[C@H](NC(=O)c2ccc3[nH]nc(-c4ccncc4)c3c2)CCC1CO` (stereo partly shown) showed an IC50 of 3.58 nM.
Compound `O=C(N[C@@H]1CCCN(Cc2c(F)cccc2F)C1)c1ccc2[nH]nc(-c3ccncc3)c2c1` has an IC50 of 36.2 nM.
For `O=C(NC1CCCCN(CCc2c(F)cccc2F)C1)c1ccc2[nH]nc(-c3ccncc3)c2c1` (stereo not shown), the IC50 was 43.3 nM.
`COC[C@H]1CC[C@@H](NC(=O)c2ccc3[nH]nc(-c4ccncc4)c3c2)CN1Cc1c(F)cccc1OC` gave an IC50 of 456 nM.
Compound `COc1cccc(F)c1CN1CCC[C@@H](NC(=O)c2ccc3[nH]nc(-c4ccncc4)c3c2)C1` has an IC50 of 13.9 nM.
Compound `COc1cccc(F)c1CN1C[C@H](C)C[C@H](NC(=O)c2ccc3[nH]nc(-c4ccc5nsnc5c4)c3c2)C1` has an IC50 of 73.6 nM.
Work on `COc1cccc(F)c1CN1C[C@@H](C)C[C@@H](NC(=O)c2ccc3[nH]nc(-c4ccn5ncnc5c4)c3c2)C1` yielded an IC50 of 15.1 nM.
Compound `COc1cccc(F)c1CN1C[C@@H](C)C[C@@H](NC(=O)c2ccc3[nH]nc(-c4ccc5nonc5c4)c3c2)C1` has an IC50 of 128 nM.
Compound `COc1cccc(F)c1CN1C[C@@H](C)C[C@@H](NC(=O)c2ccc3[nH]nc(-c4nc5ccccc5s4)c3c2)C1` has an IC50 of 61.3 nM.
Compound `Cn1cnnc1CN1CCC[C@@H](NC(=O)c2ccc3[nH]nc(-c4ccncc4)c3c2)C1` has an IC50 of 231 nM.
`COCCOc1cccc(F)c1CN1CCC[C@@H](NC(=O)c2ccc3[nH]nc(-c4ccncc4)c3c2)C1` was tested, and the IC50 was 16.9 nM.
Compound `CCOC(=O)C1CCN(Cc2ccccc2)CC1NC(=O)c1ccc2[nH]nc(-c3ccncc3)c2c1` (stereo not shown) has an IC50 of 191 nM.
Work on `O=C(NC1COCCN(CCc2c(F)cccc2F)C1)c1ccc2[nH]nc(-c3ccncc3)c2c1` (stereo not shown) yielded an IC50 of 20.8 nM.
With `O=C(NC1COCCN(CCc2ccccc2F)C1)c1ccc2[nH]nc(-c3ccncc3)c2c1` (stereo not shown) the IC50 was 9.84 nM.
`O=C(NC1COCCN(CCc2cccc(F)c2)C1)c1ccc2[nH]nc(-c3ccncc3)c2c1` (stereo not shown) showed an IC50 of 61.6 nM.
In the case of `Cc1cc(-c2n[nH]c3ccc(C(=O)NC4CC[C@H]5CC[C@@H]4N5Cc4ccccc4F)cc23)ccn1` (stereo partly shown), the IC50 is reported as 9.1 nM.
Compound `COc1cccc(F)c1CN1C2CCC(NC(=O)c3ccc4[nH]nc(-c5ccnc(C)c5)c4c3)C1CC2` (stereo not shown) has an IC50 of 20.4 nM.
